Measurements taken from US6528516B1, “Methods for reducing intraocular pressure using A3 adenosine receptor antagonists” (Trustees of the University of Pennsylvania, The Center for …, priority 1998, dated 2003).

Experiments:
[1] = molecular target: T1, human A3 receptor (Homo sapiens, UniProt P0DMS8); experiment: Adenylate cyclase assay, CHO cell membranes, forskolin stimulated; assay type: biochemical; details: forskolin 1 μM
T1 sequence (P0DMS8 1-318): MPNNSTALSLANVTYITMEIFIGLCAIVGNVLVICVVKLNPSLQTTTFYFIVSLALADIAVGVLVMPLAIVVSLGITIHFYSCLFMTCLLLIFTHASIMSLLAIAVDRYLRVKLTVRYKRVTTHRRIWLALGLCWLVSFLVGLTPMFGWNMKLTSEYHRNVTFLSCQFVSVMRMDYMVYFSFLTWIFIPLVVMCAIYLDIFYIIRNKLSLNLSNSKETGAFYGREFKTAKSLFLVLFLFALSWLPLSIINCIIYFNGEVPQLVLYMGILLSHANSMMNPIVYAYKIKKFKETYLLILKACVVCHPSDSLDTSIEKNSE

[2] = test system: rabbit iris-ciliary body; experiment: Short-circuit current across intact rabbit ciliary epithelium (iris-ciliary body), 5 mM Ba2+; details: 30 μM, solvent-corrected
From the text: Adult male Dutch belted rabbits weighing 1.8-2.4 kg (Ace Animals, Boyertown, Pa.) were anesthetized with pentobarbital and sacrificed (Carre et al., J. Membr. Biol. 146:293-305, 1995). After enucleation, the iris-ciliary body (I-CB) was isolated as previously described (Carre et al., 1995, supra.). The experiments were in accordance with the Resolution on the Use of Animals in Research of the Association for Research in Vision and Ophthalmology.
The pupil and central iris were occluded with a Lucite disc, and the iris-ciliary body was mounted between the two halves of a Lucite chamber (1). The annulus of exposed tissue provided a projected surface area of 0.93 cm^2. Preparations were continuously bubbled with 95%O2-5%CO2 for maintenance of pH 7.4 in a Ringer's solution comprising (in mM): 110.0 NaCl, 10.0HEPES (acid), 5.0HEPES (Na^+), 30.0 NaHCO3, 2.5 CaCl2, 1.2 MgCl2, 5.9 KCl, and 10.0 glucose, at an osmolality of 305 mOsm. BaCl2 (5 mM) was added to the solution to block K^+ currents. The transepithelial potential was fixed at 0 mV, corrected for solution series resistance, and the short-circuit current was monitored on a chart recorder. Data were digitally acquired at 10 Hz via a DigiData 1200A converter and AxoScope 1.1 software (Axon Instruments, Foster City, Calif.). Automatic averaging was performed with a reduction factor of 100 to achieve a final sampling rate of 6/min. […]

[3] = test system: HCE cells; experiment: Free intracellular Ca2+ in HCE cells (fura-2); assay type: cell-based, human
Protocol: In other cells, stimulation of the A3-receptor can lead to an elevation of intracellular Ca^2+(Kohno et al., supra.), so intracellular Ca^2+was monitored in HCE cells to provide an additional physiologic assay for the presence of A3 receptors. HCE cells grown on coverslips for 24-48 hrs were loaded with 1-5 μM fura-2 AM for 30-45 min at room temperature. The cells were subject to a post-incubation interval of 20-40 minutes at room temperature before recording began. The coverslips were mounted on a Nikon Diaphot microscope and visualized with a ×40 oil-immersion fluorescence objective. The emitted fluorescence (510 nm) from 10-12 confluent cells was acquired at a sampling frequency of 1 Hz following excitation at 340 nm and 380 nm, and the ratio was determined with a Delta-Ram system and Felix software (Photon Technology International Inc., Princeton, N.J.).Cells were perfused with an isotonic solution consisting of (in mM) 105 NaCl, 6HEPES (acid), 4HEPES (Na^+), 2 CaCl2, 1 MgCl2, 4 KCl, 5 glucose and 90 mannitol, at an osmolality of 327 mOsm, pH 7.4. […]
where Rmin and Rmax are the ratio of fluorescence at […] in the absence of Ca^2+, and in the presence of saturating Ca^2+, respectively. R is the ratio measured experimentally. The S2f and S2b are the fluorescence emitted at 380 nM in the Ca^2+ free and Ca^2+ bound states respectively. […]

Maximal inhibition of adenylate cyclase [1]: ~60 % of total stimulation
SMILES: CNC(=O)[C@H]1O[C@@H](n2cnc3c(NCc4cccc(I)c4)ncnc32)[C@H](O)[C@@H]1O [IB-MECA, N^6-(3-iodobenzyl)-adenosine-5′-N-methyluronamide]
effect on short-circuit current [2]: significant increase in the short-circuit current | mean rise of intracellular Ca2+ ([3]; 100 nM IB-MECA): 17 ± 5 nM | mean rise of intracellular Ca2+ ([3]; 1 μM IB-MECA): 22 ± 6 nM
